According to publication PMC5384962, “First-in-human studies of seletalisib, an orally bioavailable small-molecule PI3Kδ inhibitor for the treatment of immune and inflammatory diseases” (European Journal of Clinical Pharmacology, 2017):
Read-outs that look alike come from different tables or passages of the source.

Columns and labels:
[1] = Study-1 Part-A single ascending dose pharmacokinetics (plasma and urine); assay type: in vivo, human; conditions: for Fe: fraction excreted in urine; for AUC / AUC(0-t) / Cmax / Vd/F / half-life / Tmax / CL renal: human, oral; for AUC / AUC(0-t) / Cmax / Vd/F / half-life / Tmax: plasma; for Vd/F: read-out: Vz/F; for CL renal: urine and plasma; for Ae(0–t): urine
Text: (§1) These were phase I, randomised, double-blind, placebo-controlled studies designed to evaluate the safety, tolerability, PK and PD profiles of seletalisib following oral administration of single ascending doses and multiple ascending doses. Study-1 was a first-in-human, double-blind (sponsor-, investigator- and subject-blind) study that had two parts: Part-A evaluated seletalisib (single ascending doses) in healthy adults (including evaluation of food effects; Table 1); Part-B evaluated seletalisib (multiple ascending doses) in healthy adults and subjects with mild-to-moderate psoriasis. Study-2 was also a double-blind study of seletalisib (single and multiple ascending doses) in healthy subjects, which investigated higher doses.
(§2) Plasma concentrations of seletalisib were measured by high-performance liquid chromatography with tandem mass spectrometry (see Online Resource S1 for further details). The following PK parameters were determined in each study: AUC for seletalisib, maximum observed plasma concentration of seletalisib after a single dose (Cmax) and at steady-state (Cmaxss), time of occurrence of Cmax (tmax, obtained directly from the observed plasma concentration-time curves), minimum observed plasma concentration of seletalisib at steady-state immediately before the next dose would be administered (Ctrough), apparent terminal half-life, apparent volume of distribution after single dosing (Vz/F) and at steady-state (Vzss/F) and apparent total body clearance after single dosing (CL/F) and at steady-state (CLss/F). Accumulation factor based on AUC(0–24) [R(AUC)] and accumulation factor based on Cmax [R(Cmax)] were determined on multiple dose day 14. The following study-specific PK parameters were also determined: Study-1, total amount of seletalisib excreted in urine (Ae), renal clearance (CLr) and fraction of drug excreted in urine; Study-2, AUC(0–10) in BID dose groups, terminal elimination rate constant in plasma (λz), mean residence time (MRT) and linearity factor (LF [AUC(0–24)ss/AUC]).
(§3) Methods for the calculation of seletalisib PK parameters are detailed in Online Resource S1.
(§4) Seletalisib PK parameters were calculated via non-compartmental analysis methods from the individual concentration-time data using Phoenix WinNonlin version 6.2 (Certara, Princeton, NJ, USA). Urine (Study-1 only) and plasma PK parameters of seletalisib were reported for each subject and summarised by study part and dose group. Geometric mean and percentage geometric coefficient of variation (GeoCV%) were reported for all parameters except for tmax, which was reported using median and range. Dose proportionality for AUC and Cmax at Day_1 (Study-1 [Part-A & Part-B]; Study-2, single ascending dose-Day_1) and at steady state at Day_14 (Study-1 [Part-B]; Study-2, multiple ascending dose-Day_14) was examined via the power model and reported graphically. In Study-1, an assessment of food effect (fed versus fasted) was made for Cmax and AUC from the data for subjects who received the same dose in fed and fasted states in Part-A.

[2] = Study-2 multiple-dose day 14 pharmacokinetics (plasma); assay type: in vivo, human; conditions: for CLss/F / Cmaxss / Vzss/F / AUC(0-t) / MRT / half-life / LF: geo mean (GeoCV%); for AUC(0-t) / MRT / half-life / Tmax: human, plasma, oral; for LF: linearity factor AUC(0–24)ss/AUC
Text: as §1, §2, §3, §4

[3] = Study-1 Part-A, single dose 1 mg fasted, geo mean (GeoCV%)
[4] = Study-1 Part-A, single dose 5 mg fasted, geo mean (GeoCV%)
[5] = Study-1 Part-A, single dose 5 mg fed, geo mean (GeoCV%)
[6] = Study-1 Part-A, single dose 10 mg fasted, geo mean (GeoCV%)
[7] = Study-1 Part-A, single dose 15 mg fasted, geo mean (GeoCV%)
[8] = 1 mg, Study-1 Part-A, single dose 1 mg fasted, geo mean (GeoCV%)
[9] = 5 mg, Study-1 Part-A, single dose 5 mg fasted, geo mean (GeoCV%)
[10] = 5 mg, Study-1 Part-A, single dose 5 mg fed, geo mean (GeoCV%)
[11] = 10 mg, Study-1 Part-A, single dose 10 mg fasted, geo mean (GeoCV%)
[12] = 15 mg, Study-1 Part-A, single dose 15 mg fasted, geo mean (GeoCV%)
[13] = power model, Study-2 multiple-dose Day 14, QD groups

[O-][n+]1cccc(-c2nc3c(Cl)cccc3cc2[C@@H](Nc2ncnc3cccnc23)C(F)(F)F)c1 [Seletalisib, seletalisib]
food effect ([1]; Study-1 Part-A, 5 mg fed (high-fat, high-calorie meal) vs fasted): No clinically significant food effect | geometric mean fraction of drug excreted in urine ([1]; Study-1 Part-A, parent drug, across dose groups): < 6% | CL/F [1, 3]: 1.93 (33.4) L/h | CL/F [1, 4]: 2.19 (34.3) L/h | CL/F [1, 5]: 1.87 (44.6) L/h | CL/F [1, 6]: 1.93 (17.3) L/h | CL/F [1, 7]: 1.93 (25.4) L/h | Fe [1, 3]: 5.79 (56.6) % | Fe [1, 4]: 5.37 (35.3) % | Fe [1, 5]: 4.81 (49.6) % | Fe [1, 6]: 4.76 (66.0) % | Fe [1, 7]: 4.59 (33.6) % | AUC [1, 8]: 518 ng·h/mL | AUC(0-t) [1, 8]: 473 ng·h/mL | Cmax [1, 8]: 26.7 ng/mL | Vd/F [1, 8]: 51.5 L | half-life ([1]; 1 mg, Study-1 Part-A, single dose 1 mg fasted, geo mean (GeoCV%), read-out: t1/2 (converted)): 1110 min | Tmax ([1]; 1 mg, Study-1 Part-A, single dose 1 mg fasted, median (range), read-out: tmax): 1.77 h | AUC [1, 9]: 2290 ng·h/mL | AUC(0-t) [1, 9]: 2100 ng·h/mL | Cmax [1, 9]: 109 ng/mL | Vd/F [1, 9]: 59.2 L | half-life ([1]; 5 mg, Study-1 Part-A, single dose 5 mg fasted, geo mean (GeoCV%), read-out: t1/2 (converted)): 1130 min | Tmax ([1]; 5 mg, Study-1 Part-A, single dose 5 mg fasted, median (range), read-out: tmax): 2.01 h | AUC [1, 10]: 2680 ng·h/mL | AUC(0-t) [1, 10]: 2480 ng·h/mL | Cmax [1, 10]: 105 ng/mL | Vd/F [1, 10]: 47.6 L | half-life ([1]; 5 mg, Study-1 Part-A, single dose 5 mg fed, geo mean (GeoCV%), read-out: t1/2 (converted)): 1060 min | Tmax ([1]; 5 mg, Study-1 Part-A, single dose 5 mg fed, median (range), read-out: tmax): 4 h | AUC [1, 11]: 5170 ng·h/mL | AUC(0-t) [1, 11]: 4800 ng·h/mL | Cmax [1, 11]: 279 ng/mL | Vd/F [1, 11]: 54 L | half-life ([1]; 10 mg, Study-1 Part-A, single dose 10 mg fasted, geo mean (GeoCV%), read-out: t1/2 (converted)): 1160 min | Tmax ([1]; 10 mg, Study-1 Part-A, single dose 10 mg fasted, median (range), read-out: tmax): 1.77 h | AUC [1, 12]: 7760 ng·h/mL | AUC(0-t) [1, 12]: 7000 ng·h/mL | Cmax [1, 12]: 313 ng/mL | Vd/F [1, 12]: 58.7 L | half-life ([1]; 15 mg, Study-1 Part-A, single dose 15 mg fasted, geo mean (GeoCV%), read-out: t1/2 (converted)): 1270 min | Tmax ([1]; 15 mg, Study-1 Part-A, single dose 15 mg fasted, median (range), read-out: tmax): 3 h | half-life ([1]; Study-1, range across dose groups, read-out: geometric mean t1/2): 1060 to 1270 min | Tmax ([1]; Study-1 Part-A, single dose, range across fasted treatment groups, read-out: median tmax): 1.8 to 3 h | CL renal [1, 8]: 1.87 mL/min | CL renal [1, 9]: 1.95 mL/min | CL renal [1, 10]: 1.5 mL/min | CL renal [1, 11]: 1.53 mL/min | CL renal [1, 12]: 1.48 mL/min | Ae(0–t) [1, 3]: 0.058 (56.6) mg | Ae(0–t) [1, 4]: 0.269 (35.3) mg | Ae(0–t) [1, 5]: 0.241 (49.6) mg | Ae(0–t) [1, 6]: 0.476 (66.0) mg | Ae(0–t) [1, 7]: 0.689 (33.6) mg | CLss/F ([2]; Study-2, 30 mg QD, Day 14): 2.13 (39.1) L/h | Cmaxss ([2]; Study-2, 30 mg QD, Day 14): 897.8 (35.4) ng/mL | Vzss/F ([2]; Study-2, 30 mg QD, Day 14): 64.8 (24.2) L | CLss/F ([2]; Study-2, 45 mg QD, Day 14): 2.65 (36.9) L/h | Cmaxss ([2]; Study-2, 45 mg QD, Day 14): 1114 (27.7) ng/mL | Vzss/F ([2]; Study-2, 45 mg QD, Day 14): 74.5 (27.9) L | CLss/F ([2]; Study-2, 60 mg QD, Day 14): 2.00 (32.5) L/h | Cmaxss ([2]; Study-2, 60 mg QD, Day 14): 1957 (30.2) ng/mL | Vzss/F ([2]; Study-2, 60 mg QD, Day 14): 56.7 (33.3) L | CLss/F ([2]; Study-2, 90 mg QD, Day 14): 2.33 (19.7) L/h | Cmaxss ([2]; Study-2, 90 mg QD, Day 14): 2355 (17.8) ng/mL | Vzss/F ([2]; Study-2, 90 mg QD, Day 14): 68.0 (23.9) L | AUC(0-t) ([2]; 30 mg, Study-2, 30 mg BID, Day 14, read-out: AUC(0–10)): 10600 ng·h/mL | AUC(0-t) ([2]; 30 mg, Study-2, 30 mg QD, Day 14, read-out: AUC(0–24)): 14100 ng·h/mL | AUC(0-t) ([2]; 30 mg, Study-2, 30 mg QD, Day 14, read-out: AUC(0–t)): 24900 ng·h/mL | AUC(0-t) ([2]; 45 mg, Study-2, 45 mg QD, Day 14, read-out: AUC(0–24)): 17000 ng·h/mL | AUC(0-t) ([2]; 45 mg, Study-2, 45 mg QD, Day 14, read-out: AUC(0–t)): 30100 ng·h/mL | AUC(0-t) ([2]; 60 mg, Study-2, 60 mg QD, Day 14, read-out: AUC(0–24)): 30000 ng·h/mL | AUC(0-t) ([2]; 60 mg, Study-2, 60 mg QD, Day 14, read-out: AUC(0–t)): 51600 ng·h/mL | AUC(0-t) ([2]; 90 mg, Study-2, 90 mg QD, Day 14, read-out: AUC(0–24)): 38600 ng·h/mL | AUC(0-t) ([2]; 90 mg, Study-2, 90 mg QD, Day 14, read-out: AUC(0–t)): 67600 ng·h/mL | MRT ([2]; Study-2, 30 mg QD, Day 14): 24.9 h | half-life ([2]; Study-2, 30 mg QD, Day 14): 1480 min | Tmax ([2]; Study-2, 30 mg QD, Day 14, median (range), read-out: tmax): 4 h | MRT ([2]; Study-2, 45 mg QD, Day 14): 25.1 h | half-life ([2]; Study-2, 45 mg QD, Day 14): 1710 min | Tmax ([2]; Study-2, 45 mg QD, Day 14, median (range), read-out: tmax): 4 h | MRT ([2]; Study-2, 60 mg QD, Day 14): 24.2 h | half-life ([2]; Study-2, 60 mg QD, Day 14): 1480 min | Tmax ([2]; Study-2, 60 mg QD, Day 14, median (range), read-out: tmax): 3.5 h | MRT ([2]; Study-2, 90 mg QD, Day 14): 24.7 h | half-life ([2]; Study-2, 90 mg QD, Day 14): 1480 min | Tmax ([2]; Study-2, 90 mg QD, Day 14, median (range), read-out: tmax): 4 h | Tmax ([2]; Study-2, day 14, fed, range across groups, read-out: time to peak plasma concentration): 3.5 to 4 h | LF ([2]; Study-2, 30 mg QD, Day 14): 1.275 (16.7) | LF ([2]; Study-2, 45 mg QD, Day 14): 1.028 (26.4) | LF ([2]; Study-2, 60 mg QD, Day 14): 1.160 (31.8) | LF ([2]; Study-2, 90 mg QD, Day 14): 1.127 (25.9) | Dose proportionality of Cmaxss (ng/mL): Dose (beta), Estimate [2, 13]: 0.96 | Dose proportionality of Cmaxss (ng/mL): Intercept, Estimate [2, 13]: 3.52
